Like-named read-outs stand apart in the source and are kept apart here.
Legend:
[1] = mouse brain protein binding (BPB) assay; type: in vitro ADME
Method: (§1) We have adapted a previously reported cyclooxygenase enzymatic assay utilizing LCMS quantification of PGE2 as the product of COX-1 and COX2 catalyzed conversion of arachidonic acid to evaluate the binding properties of newly synthesized ligands [Cao, 2011]. These optimized and miniaturized (384-well plates) LCMS-based COX-1 and COX2 enzymatic assays enabled us to quickly evaluate newly synthesized ligands for COX2 binding affinity and selectivity vs COX-1. Using a shorter ligand-enzyme incubation time in the LCMS assay (2 minutes vs 10 minutes) also permitted us to prioritize ligands with faster binding kinetics. Considering the relatively slow on-rate kinetics of known coxibs, due to their 3-step binding mechanism [Marnett, 2009], we believe that optimizing this critical parameter will be key to the successful development of a COX2 PET tracer. Using these enzymatic assays, we have evaluated>200 newly synthesized ligands against COX2 and >20 ligands against COX-1. Another critical property necessary for a good PET radiotracer is to have low non-specific binding (NSB) to increase the free fraction and maximize the signal to noise ratio. This property can be evaluated using in-vitro protein binding assays, and we have now evaluated>50 newly synthesized ligands in mouse, rat and human plasma protein binding (PPB) assays as well as >15 ligands in a mouse brain protein binding (BPB) assay.

ovine COX-1 (oCOX-1) = biological target: T1, ovine COX-1 (oCOX-1) (Ovis aries, UniProt P05979); assay: LCMS-based COX-1 enzymatic inhibition assay (PGE2 quantification); type: biochemical
T1 construct: purchased Cayman Chemicals (Ann Arbor, Mich.)
T1 sequence (P05979 25-600): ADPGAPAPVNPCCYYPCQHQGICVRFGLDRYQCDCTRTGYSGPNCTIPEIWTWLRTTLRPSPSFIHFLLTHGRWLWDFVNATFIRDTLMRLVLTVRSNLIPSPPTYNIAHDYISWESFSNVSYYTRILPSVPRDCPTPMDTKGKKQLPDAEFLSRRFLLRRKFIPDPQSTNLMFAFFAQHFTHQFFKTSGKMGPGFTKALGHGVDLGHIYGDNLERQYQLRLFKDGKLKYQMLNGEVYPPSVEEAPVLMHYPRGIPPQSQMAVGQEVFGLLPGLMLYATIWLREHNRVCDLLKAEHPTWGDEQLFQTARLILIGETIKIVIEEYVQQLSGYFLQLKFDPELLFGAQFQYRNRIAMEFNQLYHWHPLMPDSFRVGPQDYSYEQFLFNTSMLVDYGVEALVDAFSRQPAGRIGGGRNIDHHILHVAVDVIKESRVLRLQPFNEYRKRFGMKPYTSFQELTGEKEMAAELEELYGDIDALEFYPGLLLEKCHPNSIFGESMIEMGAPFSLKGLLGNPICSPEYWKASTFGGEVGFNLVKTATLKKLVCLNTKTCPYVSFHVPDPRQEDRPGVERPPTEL
Summary of the method: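 Ovine COX-1 (0.1 μg) or human recombinant COX2 (0.2 μg) in 100 mM Tris.HCl pH 8.0 with hematin and epinephrine, preincubated with inhibitor 10 min at 37 °C. Reaction with 5 μM arachidonic acid stopped after 2 min with HCl; PGE2 quantified by LC-MS-MS. IC50 from 12 concentrations in triplicate.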

[2] = Mouse Plasma Protein Stability (% Remaining); type: in vitro ADME; details: average
[3] = rat plasma protein binding (PPB) assay; type: in vitro ADME; details: average, read-out: Rat Plasma Protein Binding % Bound Avg (converted)
Method: as §1

Rat Microsome Stability = type: in vitro ADME; details: rat microsomes
MDR1 = assay: MDR1-MDCKII permeability and efflux; type: in vitro ADME; details: dog, MDCK-MDR1; for Papp A→B: read-out: MDR1-MCKII Papp A-B; for Papp B→A: read-out: MDR1-MCKII Papp B-A
[4] = in-vitro protein binding: free fraction / fraction unbound, matrix and species not given; type: in vitro ADME; details: compared to MC1; comparator not always stated
Method: as §1

[5] = 10 minutes, readout pge2/pge2d4 area ratio, average LLE
[6] = 10 minutes, readout pge2/pge2d4 area ratio, average, read-out: COX1 10 minutes pge2/pge2d4 area ratio Avg. IC50
[7] = 10 minutes, readout pge2 area (counts), average LLE
[8] = 10 minutes, readout pge2 area (counts), average, read-out: COX1 10 minutes pge2 area (counts) Avg. IC50

| fraction unbound [1] | COX1 10 minutes pge2/pge2d4 area ratio Avg. LLE (ovine COX-1 (oCOX-1); [5]) | IC50 (ovine COX-1 (oCOX-1); [6]) [µM] | COX1 10 minutes pge2 area (counts) Avg. LLE (ovine COX-1 (oCOX-1); [7]) | Mouse Plasma Protein Stability % Remaining Avg [2] [%] | fraction unbound [3] | IC50 (ovine COX-1 (oCOX-1); [8]) [µM] | Rat Microsome Stability % Remaining Avg (Rat Microsome Stability) [%] | efflux ratio (MDR1) | Papp A→B (MDR1) [×10⁻⁶ cm/s] | Papp B→A (MDR1) [×10⁻⁶ cm/s] | COX1 10 minutes pge2/pge2d4 area ratio Avg. LLE (ovine COX-1 (oCOX-1); 10 minutes, pge2/pge2d4 area ratio, head of this section not shown, inferred) | COX1 10 minutes pge2 area (counts) Avg. LLE (ovine COX-1 (oCOX-1); 10 minutes, pge2 area (counts), head of this section not shown, inferred) | IC50 (ovine COX-1 (oCOX-1); 10 minutes, pge2 area (counts), head of this section not shown, inferred, read-out: COX1 10 minutes pge2 area (counts) Avg. IC50) [µM] | improvement in free fraction (fraction unbound) [4] [fold] | SMILES | IC50 (ovine COX-1 (oCOX-1)) [µM] |
| --- | --- | --- | --- | --- | --- | --- | --- | --- | --- | --- | --- | --- | --- | --- | --- | --- |
| 0.011 | 1.089 | 22.4 | 0.724 | 99.2 | 0.052 | – | – | – | – | – | – | – | – | – | CS(=O)(=O)c1ccc(-c2cccc(/C=C\c3ccoc3)n2)cc1 [Compound 35, 2-[(Z)-2-(furan-3-yl)ethenyl]-6-(4-methanesulfonylphenyl)pyr] | – |
| – | 1.091 | 32.3 | 0.9785 | 98.9 | – | 42 | – | – | – | – | – | – | – | – | COc1cc(NCc2cccs2)nc(-c2ccc(S(C)(=O)=O)cc2)c1 [Compound 50] | – |
| 0.02 | – | 9.89 | – | – | – | – | 20.3 | 1.7 | 49.7 | 83.8 | 2.943 | 2.879 | 10.7 | 3 | CS(=O)(=O)c1ccc(-c2cncc(NCc3cccs3)n2)cc1 [Compound 98] | – |
| – | 2.582 | 10.4 | 2.539 | 92.8 | 0.015 | 10.9 | – | – | – | – | – | – | – | – | CS(=O)(=O)c1ccc(-c2cncc(OCc3cccs3)n2)cc1 [Compound 19] | – |
| 0.019 | – | 36.4 | – | 106 | 0.087 | 29.7 | 11.6 | 1 | 68.5 | 67.9 | – | – | – | ~4 | CS(=O)(=O)c1ccc(-c2cccc(NCc3ccco3)n2)cc1 [Compound 36] | – |
| – | 1.139 | 39.9 | 1.072 | 102 | 0.031 | 46.5 | – | – | – | – | – | – | – | – | CS(=O)(=O)c1ccc(-c2cccc(OCc3ccoc3)n2)cc1 [Compound 16] | – |
| 0.022 | 1.461 | 38.8 | – | 107.5 | 0.068 | – | 8.2 | 0.9 | 50.8 | 47.2 | – | – | – | ~4 | CS(=O)(=O)c1ccc(-c2cccc(NCc3ccoc3)n2)cc1 [Compound 47, N-(furan-3-ylmethyl)-6-(4-(methylsulfonyl)phenyl)pyridin-2-amine] | – |
| – | 1.251 | 11.5 | 1.136 | 119.5 | 0.006 | 13.8 | – | 0.9 | 33.7 | 29.9 | – | – | – | – | CS(=O)(=O)c1ccc(-c2cccc(OCc3cccs3)n2)cc1 [Compound 1, 2-(4-methanesulfonylphenyl)-6-[(thiophen-2-yl)methoxy]pyridine] | – |
| – | 1.4251 | 40.3 | 1.516 | 99 | 0.024 | 32.7 | – | – | – | – | – | – | – | – | CS(=O)(=O)c1ccc(-c2cc(F)cc(NCc3ccco3)n2)cc1 [Compound 14] | – |
| – | 1.418 | 33.3 | 1.362 | – | 0.025 | 37.9 | – | – | – | – | – | – | – | – | CS(=O)(=O)c1ccc(-c2ccc(F)c(NCc3ccoc3)n2)cc1 [Compound 33] | – |
| – | 3.122 | 0.323 | 3.085 | – | 0.046 | 0.417 | – | – | – | – | – | – | – | – | CS(=O)(=O)c1ccc(-c2cccc(NCc3ccc(F)o3)n2)cc1 [Compound 23] | – |
| – | – | 34.7 | – | 114.1 | 0.025 | 33.4 | 6.9 | – | – | – | – | – | – | – | CS(=O)(=O)c1ccc(-c2cccc(NCc3cccs3)n2)cc1 [Compound 24] | – |
| – | 1.391 | 28.7 | 1.134 | – | 0.042 | – | – | – | – | – | – | – | – | – | Cc1occc1CNc1cccc(-c2ccc(S(C)(=O)=O)cc2)n1 [Compound 21] | – |
| 0.012 | – | – | 0.884 | 102 | 0.047 | – | 0.2 | – | – | – | – | – | – | – | COc1ccc(NCc2cccs2)nc1-c1ccc(S(C)(=O)=O)cc1 [Compound 17] | – |
| – | 1.4613 | 30.1 | 1.484 | – | 0.025 | 28.7 | – | – | – | – | – | – | – | – | CS(=O)(=O)c1ccc(-c2cc(F)cc(NCc3ccoc3)n2)cc1 [Compound 34] | – |

| SMILES | fraction unbound [1] | COX1 10 minutes pge2/pge2d4 area ratio Avg. LLE (ovine COX-1 (oCOX-1); [5]) | IC50 (ovine COX-1 (oCOX-1); [6]) [µM] | COX1 10 minutes pge2 area (counts) Avg. LLE (ovine COX-1 (oCOX-1); [7]) | Mouse Plasma Protein Stability % Remaining Avg [2] [%] | fraction unbound [3] | IC50 (ovine COX-1 (oCOX-1); [8]) [µM] | Rat Microsome Stability % Remaining Avg (Rat Microsome Stability) [%] | efflux ratio (MDR1) | Papp A→B (MDR1) [×10⁻⁶ cm/s] | Papp B→A (MDR1) [×10⁻⁶ cm/s] | COX1 10 minutes pge2/pge2d4 area ratio Avg. LLE (ovine COX-1 (oCOX-1); 10 minutes, pge2/pge2d4 area ratio, head of this section not shown, inferred) | COX1 10 minutes pge2 area (counts) Avg. LLE (ovine COX-1 (oCOX-1); 10 minutes, pge2 area (counts), head of this section not shown, inferred) | IC50 (ovine COX-1 (oCOX-1); 10 minutes, pge2 area (counts), head of this section not shown, inferred, read-out: COX1 10 minutes pge2 area (counts) Avg. IC50) [µM] | improvement in free fraction (fraction unbound) [4] [fold] | IC50 (ovine COX-1 (oCOX-1)) [µM] |
| --- | --- | --- | --- | --- | --- | --- | --- | --- | --- | --- | --- | --- | --- | --- | --- | --- |
| CS(=O)(=O)c1ccc(-c2ccc(F)c(NCc3ccco3)n2)cc1 [Compound 15] | – | 1.314 | – | 1.404 | – | 0.02 | 34.4 | – | – | – | – | – | – | – | – | 52 |
| COc1ncc(NCc2ccoc2)nc1-c1ccc(S(C)(=O)=O)cc1 [Compound 44] | – | 2.274 | – | 2.41 | 105.7 | 0.044 | 38.1 | 5.3 | 1.2 | 39.6 | 47.2 | – | – | – | – | 52 |
| CS(=O)(=O)c1ccc(-c2nc(NCc3cccs3)cc3ccoc23)cc1 [Compound 2] | – | −0.046 | – | −0.02512 | 108 | 0.009 | 49.6 | – | – | – | – | – | – | – | – | 52 |
| COc1ncc(NCc2cccs2)nc1-c1ccc(S(C)(=O)=O)cc1 [Compound 29] | – | 1.794 | – | 3.31 | 93.2 | 0.019 | 0.0484 | 2.2 | – | – | – | – | – | – | – | 52 |
